Results published in article PMC12142043, “Cell-based high-content approach for SARS-CoV-2 neutralization identifies unique monoclonal antibodies and PI3K pathway inhibitors” (Frontiers in Cell and Developmental Biology, 2025).

What was measured:
[1] = system: SARS-CoV-2 (USA-WA1/2020) in Calu-3 cells; test: microbe, parasite or virus in culture; assay type: cell-based
[2] = system: Calu-3 cells infected with SARS-CoV-2; assay type: cell-based, human; set-up: key to Grouping with red cluster (mock control) in UMAP: *: Clusters with mock control in high-dose treatment
[3] = system: SARS-Cov-2 WA strain in A549 lung cells; assay type: cell-based
Calu-3 cells [4] = test: cells; details: Homo sapiens, Calu-3, read-out: EC50 (μM) Cell count
Calu-3 cells [5] = details: Figure 5C-F
[6] = system: SARS-CoV-2 (USA-WA1/2020) in Calu-3 cells; assay type: cell-based; details: Calu-3, 48 h

SMILES: CC(C)n1nc(-c2ccc3oc(N)nc3c2)c2c(N)ncnc21 [INK 128]
- Selectivity index [1]: 11.590
- EC50 ([1]; Severe acute respiratory syndrome coronavirus 2, Calu-3, 48 h, […], above 30 μM reported as >30, read-out: EC50 (μM) dsRNA): 0.213 µM
- Shift in UMAP space with increasing concentration ([2]; Figure 5C-F): moving into cluster 1
- Grouping with red cluster (mock control) in UMAP ([2]; high-dose treatment): INK 128*
- Synergy (ZIP synergy model) [3]: Antagonism
- EC50 (Calu-3 cells [4]): 2.47 µM
- Effect on host cell viability and morphology (Calu-3 cells [5]): little effect on host cell viability
- dsRNA signal, AU High ([6]; high dose (10 µM)): 0.0 AU
- dsRNA signal, AU Low ([6]; low dose (100 nM)): 31875.7 AU
